Measurements: patent publication US20180092908A1, “SMALL MOLECULE OXIDIZERS OF PDI AND THEIR USE” (THE TRUSTEES OF COLUMBIA UNIVERSITY IN THE CITY OF NEW YORK, priority 2015, published 2018)
Where two headings read alike, the source gives them in different places.

How the values were obtained:
[1] = molecular target: T1, recombinant catalytic a domain of human PDI A1 (PDIa) (Homo sapiens, UniProt P07237); test: Insulin aggregation assay (PDIa reductase activity); type: biochemical; details: Table 5
T1 construct: made in house; host or cells: Escherichia coli BL21-Gold (DE3)
Source text: In this insulin aggregation assay (Xu et al., 2012; Jasuja et al., 2012; Khan et al., 2011; Smith et al., 2004), PDIa reduced the two disulfide bonds between the α- and β-chains of insulin, causing the β-chain to aggregate and precipitate, resulting in an increase in absorbance at 650 nm.
To investigate the mode of binding further and to determine whether the binding was reversible or irreversible, the recovery of enzymatic activity of PDIa after dilution of pre-formed concentrated PDIa-LOC14 complexes was analyzed. LOC14 (750 μM) was incubated with a concentrated solution of PDIa (500 μM). The mixture was then diluted 100-fold and PDI's enzymatic activity was measured in the insulin reduction assay. As a control, the same procedure was also performed on the sample containing an irreversible inhibitor, 16F16 (16F16 at 750 μM and PDIa at 500 μM). […] This illustrated that unlike 16F16, LOC14 binding to PDIa is reversible.

[2] = molecular target: T2, human catalytic PDI A1 a domain (PDIa) (Homo sapiens, UniProt P07237); test: Isothermal titration calorimetry (ITC) binding to PDIa
T2 construct: made in house; host or cells: Escherichia coli BL21-Gold (DE3)
Protocol: All ITC experiments were carried out at 25° C. on MicoCal Auto-ITC200 system (GE Healthcare). Reduced PDIa was dialyzed into ITC buffer (20 mM sodium phosphate buffer pH 7.8) and loaded into a sample cell at 40 μM concentration. The compound solution was loaded into a syringe at 400 μM in the same ITC buffer with a final DMSO concentration at 0.4% (v/v). ITC titration experiments were carried out at 25° C. with 19 injections, 2 μl per injection, and 180 seconds between each injection. The reference cell power was set to 5 μcal/sec. A control experiment was performed for each compound, where each compound was titrated into buffer to account for heat released due to dilution. This background was subtracted from test data before a final dissociation constant was obtained. Data were analyzed using a one-site binding model in Origin 7.1 software. […] Gibbs free energy, ΔG, was calculated from equation ΔG=ΔH−TΔS. All other parameters, Ka, n, ΔH, ΔS, were determined directly from the titration data.
For ITC experiments with 16F16 pre-treatment, 40 μM PDIa (after dialysis into ITC buffer) was treated with 200 μM 16F16 for 12-15 hours at 4° C. Next day the whole solution was loaded into the sample cell. LOC14 at 400 μM in ITC buffer was loaded into syringe and titrated into PDIa+16F16 loaded cell. For control experiments, ITC buffer with 200 μM 16F16 was used in the cell, while 400 μM LOC14 in ITC buffer was used in the syringe.
The binding mode of LOC14 to PDIa was next investigated using isothermal titration calorimetry (ITC). ITC measures the heat released or absorbed during a biomolecular interaction. It is a direct analytical method for determining the binding and thermodynamic parameters, such as reaction stoichiometry (n), binding constants (Ka and Kd), enthalpy (ΔH), entropy (ΔS), and free energy (ΔG) of an interaction.

[3] = test system: PC12 mHTT^Q103 cells; test: Rescue of PC12 cells from mHTT^Q103 induced cell death (Alamar blue viability); type: cell-based; details: Table 5; for EC50: Rattus norvegicus, PC-12, read-out: Cell Viability Assay EC50
Source text: PC12 mHTT^Q103 cells were a gift from Erik S. Schweitzer (UCLA School of Medicine, Los Angeles, Calif.). These cells are stably transfected with the first exon of human HTT gene containing the pathogenic 103 CAG/CAA repeat expansion, under the control of the ecdysteroid promoter (Aiken et al., 2004). The plasmid also contains a Bombyx mori ecdysone receptor gene fused at N-terminal with VP16 transactivation domain (Suhr et al., 1998; Vilaboa et al., 2011). Addition of the ecdysone analog, tebufenozide, to the cell culture medium is used to initiate the transcription of mutant HTT (Aiken et al., 2004).
PC12 mHTT^Q103 cells were cultured in DMEM containing 4.5 g/I glucose, 25 mM HEPES, sodium pyruvate, and no L-glutamine (Mediatech, cat. no. 15-018-CV), supplemented with 10% (v/v) Cosmic Calf serum, 2 mM L-glutamine, 100 units/mL of penicillin-streptomycin, and 0.5 mg/ml active geneticin. Cells were grown at 37° C., 9.5% CO2, and the medium was replaced with fresh medium every 2-3 days. To induce mHTT^Q103 expression for experiments, tebufenozide, a gift from Lynne Moore and Fred H. Gage (The Salk Institute for Biological Studies, La Jolla, Calif.), was added to the medium at 200 nM final concentration from 1 mM stock in 85% ethanol.
LOC mother plates with compounds at 4 mg/ml were thawed and spun down (1000 rpm, 20° C., 1 min) prior to use. Biomek FX (Beckman Coulter) robotic liquid dispenser was used to handle all liquid transferring and mixing. […] Two fold serial dilution was performed across five daughter plates by transferring 50 μl of compounds (at […]) from the D1 plate into 50 μl of PC12 medium in daughter plate D2, mixing, and then repeating the process for the remaining three plates. Daughter plate D1 with compounds at […], daughter plate D3 with compounds at 20 μl/ml and daughter plate D5 with compounds at 5 μl/ml were then used for the screen. Assay plates were set up by seeding tebufenozide-induced PC12 mHTT^Q103 cells into 384-well black, clear-bottom plates (Corning Inc. cat. no. 3712) at a density of 7,500 cells per well in 57 μl PC12 medium without geneticin. Three microliters of compound from the daughter plates (D1, D3, and D5) were added to the assay plates for a final compound concentration of 4 μl/ml, 1 μl/ml, and 0.25 μl/ml. Four wells containing uninduced PC12 mHTT^Q103 cells and four wells containing medium only, were also included on each plate as controls. The assay plates were incubated at 37° C., 9.5% CO2 for 48 hours. Twenty microliters of 40% Alamar blue (Life Technologies cat. no. DAL1100) solution in PC12 medium was added to each well (1:10 final dilution) and the plates were incubated for an additional 12-24 hours at 37° C., 9.5% CO2. Alamar blue fluorescence was read on a fluorescence plate reader (PerkinElmer Victor3) with 530 nm excitation filter and 590 nm emission filter. Each compound concentration was tested in triplicate.
The follow-up testing of primary screen hits was performed in a similar way. Fresh powder stocks of primary hits were re-ordered from vendors, dissolved in DMSO and tested in a two-fold serial dilution across 10 wells in both tebufenozide-induced and uninduced PC12 mHTT^Q103 cells. Dose-response curves were plotted as mean±SD and fit to either four-parameter sigmoidal (for uninduced cells) or bell-shaped (induced) function using Prism (GraphPad Software).
A cascade of two assays was used, involving both a phenotypic high-throughput screening (HTS) assay and an in vitro PDI reductase assay, to identify neuroprotective PDI-inhibiting compounds. […] Alamar blue was used as a fluorescent readout for viability after 48 hours of compound treatment and mHTT^Q103 induction. […] All the candidate hit compounds were re-tested in a two-fold dilution series.

[4] = PDIa, Table 5, read-out: ITC Assay KD

T2 sequence (P07237 with tags, fused parts or gaps): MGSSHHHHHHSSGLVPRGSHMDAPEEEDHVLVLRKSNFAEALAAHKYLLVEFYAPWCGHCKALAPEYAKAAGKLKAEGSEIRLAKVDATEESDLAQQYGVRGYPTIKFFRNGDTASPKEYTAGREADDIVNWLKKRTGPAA
T1 sequence (P07237 with tags, fused parts or gaps): as above

O=C(Nc1ccc(Cc2ccccc2)cc1)c1ccccc1S [LC-23]
Insulin Assay (either active or inactive) [1]: not active
ITC Assay KD ([2]; PDIa, Table 5): KD = N/A irreversible or not active
EC50 [3]: 3880 nM

O=c1[nH]sc2ccccc12 [BIT fragment, 1,2,Benzisothiazol-3-one]
Kd ([2]; PDIa, Table 4, read-out: ITC KD): 142 nM

O=c1c2cccnc2sn1CCC1CCNCC1 [LC-56]
Insulin Assay (either active or inactive) [1]: Active

O=C(Nc1ccc(N2CCOCC2)cc1)c1ccccc1S [LC-21]
Insulin Assay (either active or inactive) [1]: not active
ITC Assay KD ([2]; PDIa, Table 5): KD = N/A irreversible or not active
EC50 [3]: 696 nM

O=C(C1CC1)N1CCN(Cn2oc3ccccc3c2=O)CC1 [Oxy-LOC14, 2-((4-(cyclopropanecarbonyl)piperazin-1-yl)methyl)benzo[d]isoxazol-3(2H)-one]
loss in binding affinity compared to LOC14 ([2]; ITC, PDIa): 35 fold
Kd ([2]; reduced PDIa 40 μM, compound 400 μM, 25° C., read-out: dissociation constant (Kd)): 2430 nM

C[C@H](c1ccccc1)n1sc2ncccc2c1=O [LC-58]
Insulin Assay (either active or inactive) [1]: Active

O=c1c2ccccc2sn1-c1cccc(F)c1 [LC-31]
Insulin Assay (either active or inactive) [1]: not active
ITC Assay KD ([2]; PDIa, Table 5): KD = N/A irreversible or not
EC50 [3]: 1760 nM

O=c1c2cccnc2sn1CCN1CCCCC1 [LC-54]
Insulin Assay (either active or inactive) [1]: Active

O=c1c2ccccc2sn1CN1CCOCC1 [LC-18]
Insulin Assay (either active or inactive) [1]: Active
Kd [2, 4]: 253 nM
EC50 [3]: 547 nM

C[C@H](c1ccccc1)n1sc2ccccc2c1=O [LC-29]
Insulin Assay (either active or inactive) [1]: Active
Kd [2, 4]: 658 nM
EC50 [3]: 519 nM

O=c1ssc2ccccc12 [LC-48]
Insulin Assay (either active or inactive) [1]: not active

O=C(C1CC1)N1CCN(Cn2sc3c(C(F)(F)F)cccc3c2=O)CC1 [LC-42]
Insulin Assay (either active or inactive) [1]: not active
ITC Assay KD ([2]; PDIa, Table 5): KD = N/A irreversible or not active

Cc1ccc(-n2sc3ccccc3c2=O)c(Br)c1 [LC-36]
Insulin Assay (either active or inactive) [1]: not active
Kd [2, 4]: 25.3 nM
EC50 [3]: 1590 nM

O=c1[nH]sc2c(C(F)(F)F)cccc12 [LC-41]
Insulin Assay (either active or inactive) [1]: not active
ITC Assay KD ([2]; PDIa, Table 5): KD = N/A irreversible or not active

Cc1ccc(NC(=O)c2ccccc2S)c(Br)c1 [LC-34]
Insulin Assay (either active or inactive) [1]: not active
ITC Assay KD ([2]; PDIa, Table 5): KD = N/A irreversible or not active
EC50 [3]: 3770 nM

COCCn1sc2ccccc2c1=O [LC-32]
Insulin Assay (either active or inactive) [1]: Active
Kd [2, 4]: 158 nM
EC50 [3]: 700 nM

O=C(NCc1ccc(Br)cc1)c1ccccc1S [LC-20]
Insulin Assay (either active or inactive) [1]: not active t
ITC Assay KD ([2]; PDIa, Table 5): KD = N/A irreversible or not active
EC50 [3]: > 50000 nM

O=c1c2ccccc2sn1CN1CCN(Cc2ccccc2)CC1 [LC-22]
Insulin Assay (either active or inactive) [1]: Active
Kd [2, 4]: 173 nM
EC50 [3]: 310 nM

S=c1ssc2ccccc12 [LC-49]
Insulin Assay (either active or inactive) [1]: not active

C[C@@H](NC(=O)c1ccccc1S)c1ccccc1 [LC-28]
Insulin Assay (either active or inactive) [1]: not active
ITC Assay KD ([2]; PDIa, Table 5): KD = N/A irreversible or not active
EC50 [3]: 808 nM

NC(=O)c1cccc(F)c1SSc1c(F)cccc1C(N)=O [LC-44]
Insulin Assay (either active or inactive) [1]: Active
ITC Assay KD ([2]; PDIa, Table 5): KD = N/A irreversible or not active
EC50 [3]: 7070 nM

O=C(Nc1ccc(Oc2ccccc2)cc1)c1ccccc1S [LC-33]
Insulin Assay (either active or inactive) [1]: not active
ITC Assay KD ([2]; PDIa, Table 5): KD = N/A irreversible or not active
EC50 [3]: 2940 nM

O=C(C1CC1)N1CCN(Cn2sc3c(F)cccc3c2=O)CC1 [LC-43]
Insulin Assay (either active or inactive) [1]: Active
ITC Assay KD ([2]; PDIa, Table 5): KD = N/A irreversible or not active
EC50 [3]: 7410 nM

Cn1sccc1=O [LC-35]
Insulin Assay (either active or inactive) [1]: Active
ITC Assay KD ([2]; PDIa, Table 5): KD = N/A irreversible or not active
Cell Viability Assay EC50 [3]: Not Active

O=C(C1CC1)N1CCN(Cn2sc3c(Cl)cccc3c2=O)CC1 [LC-39]
Insulin Assay (either active or inactive) [1]: not active
ITC Assay KD ([2]; PDIa, Table 5): KD = N/A irreversible or not active

O=c1c2ccccc2sn1-c1ccc(Cc2ccccc2)cc1 [LC-25]
Insulin Assay (either active or inactive) [1]: not active
ITC Assay KD ([2]; PDIa, Table 5): KD = N/A irreversible or not active
EC50 [3]: 1590 nM

O=c1[nH]sc2c(Cl)cccc12 [LC-38]
Insulin Assay (either active or inactive) [1]: not active
ITC Assay KD ([2]; PDIa, Table 5): KD = N/A irreversible or not active

O=c1c2ccccc2sn1Cc1ccc(Br)cc1 [LC-26]
Insulin Assay (either active or inactive) [1]: not active
ITC Assay KD ([2]; PDIa, Table 5): KD = N/A irreversible or not active
EC50 [3]: 778 nM

O=c1c2ccccc2sn1-c1ccc(Oc2ccccc2)cc1 [LC-37]
Insulin Assay (either active or inactive) [1]: not active
ITC Assay KD ([2]; PDIa, Table 5): KD = N/A irreversible or not active
EC50 [3]: 1680 nM

O=c1c2cccnc2sn1CCN1CCOCC1 [LC-55]
Insulin Assay (either active or inactive) [1]: Active

O=C(Nc1cccc(F)c1)c1ccccc1S [LC-30]
Insulin Assay (either active or inactive) [1]: not active
ITC Assay KD ([2]; PDIa, Table 5): KD = N/A irreversible or not active
EC50 [3]: 2990 nM

NC(=O)c1cccc(C(F)(F)F)c1SSc1c(C(N)=O)cccc1C(F)(F)F [LC-45]
Insulin Assay (either active or inactive) [1]: not active
ITC Assay KD ([2]; PDIa, Table 5): KD = N/A irreversible or not active

Cc1nnc2s[nH]c(=O)c2c1C [LC-57]
Insulin Assay (either active or inactive) [1]: Active
EC50 [3]: 12200 nM
